Experimental findings from patent publication US10780090B2, “Heteroaryl compounds useful as inhibitors of SUMO activating enzyme” (Millennium Pharmaceuticals, Inc., priority 2014, dated 2020) are described below.

The experiment addresses recombinant human SAE enzyme (Homo sapiens (Human), UniProt Q9UBT2). The experiment can be described thus: SAE HTRF enzyme assay. The note with it: for Percent Inhibition: Concentration 0.111 μM; for IC50: class symbols A/B/C. The format is biochemical. The essentials: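 0.11 nM SAE incubated with 0.5 μM ATP, 0.01 μM Ubc9-GST and 0.125 μM Sumo-Flag in HEPES pH 7.5, MgCl2, GSH, BSA, ±inhibitor, 105 min at 24° C. EDTA stop; Eu-cryptate anti-Flag/XL-APC anti-GST HTRF read after 2 h. Values given as single-concentration % inhibition or IC50.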

What is called IC50 is the concentration needed to halve the response being measured.

Some results are limits rather than exact numbers.

recombinant human SAE enzyme, sequence (Q9UBT2 whole entry): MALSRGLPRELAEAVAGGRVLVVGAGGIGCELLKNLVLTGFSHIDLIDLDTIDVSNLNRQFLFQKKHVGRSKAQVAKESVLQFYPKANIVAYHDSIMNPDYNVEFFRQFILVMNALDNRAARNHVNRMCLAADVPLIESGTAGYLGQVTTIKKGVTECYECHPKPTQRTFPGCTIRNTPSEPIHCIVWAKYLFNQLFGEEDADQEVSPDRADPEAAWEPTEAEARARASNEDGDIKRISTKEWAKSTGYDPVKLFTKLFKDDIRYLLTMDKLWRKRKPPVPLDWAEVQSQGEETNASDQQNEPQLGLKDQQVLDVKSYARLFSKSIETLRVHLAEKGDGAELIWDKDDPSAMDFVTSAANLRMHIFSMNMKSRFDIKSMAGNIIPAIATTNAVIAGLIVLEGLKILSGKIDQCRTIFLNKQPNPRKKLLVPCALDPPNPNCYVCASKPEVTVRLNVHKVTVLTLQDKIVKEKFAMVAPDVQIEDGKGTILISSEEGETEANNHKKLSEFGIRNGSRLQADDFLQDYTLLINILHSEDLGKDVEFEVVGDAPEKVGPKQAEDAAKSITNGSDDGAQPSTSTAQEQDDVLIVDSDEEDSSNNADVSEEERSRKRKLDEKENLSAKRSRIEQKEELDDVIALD
recombinant human SAE enzyme, sequence (Q9UBE0 whole entry partner): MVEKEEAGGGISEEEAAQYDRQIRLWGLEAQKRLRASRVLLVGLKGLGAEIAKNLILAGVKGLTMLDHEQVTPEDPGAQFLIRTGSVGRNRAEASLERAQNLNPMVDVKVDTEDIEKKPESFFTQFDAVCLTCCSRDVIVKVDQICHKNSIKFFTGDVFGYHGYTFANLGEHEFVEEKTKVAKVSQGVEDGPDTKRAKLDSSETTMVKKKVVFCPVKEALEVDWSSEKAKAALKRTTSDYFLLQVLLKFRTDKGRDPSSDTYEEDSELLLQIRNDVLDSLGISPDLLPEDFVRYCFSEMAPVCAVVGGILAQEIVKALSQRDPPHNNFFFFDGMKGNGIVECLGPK

For `C[C@H](O)c1cc(C(=O)c2cncnc2N[C@@H]2C[C@H](COS(N)(=O)=O)[C@@H](O)C2)sc1Cl` (mixture of isomers) [I-226, [(1R,2S,4R)-4-{[5-({5-Chloro-4-[(1S)-1-hydroxyethyl]-2-thienyl}carbonyl)pyrimidin-4-yl]amino}-2-hydroxycyclopentyl]methyl sulfamate and [(1R,2S,4R)-4-{[5-({5-Chloro-4-[(1R)-1-hydroxyethyl]-2-thienyl}carbonyl)pyrimidin-4-yl]amino}-2-hydroxycyclopentyl]methyl sulfamate], the “Percent Inhibition” value worked out at 33 and the IC50 lay within 100 to 1000 nM.

Take `CN1CCC[C@]1(c1cccc(Cl)c1)c1csc(C(=O)c2cncnc2N[C@@H]2C[C@H](COS(N)(=O)=O)[C@@H](O)C2)c1` (mixture of isomers) [I-227, [(1R,2S,4R)-4-{[5-({4-[(2S)-2-(3-chlorophenyl)-1-methylpyrrolidin-2-yl]-2-thienyl}carbonyl)pyrimidin-4-yl]amino}-2-hydroxycyclopentyl]methyl sulfamate and [(1R,2S,4R)-4-{[5-({4-[(2R)-2-(3-chlorophenyl)-1-methylpyrrolidin-2-yl]-2-thienyl}carbonyl)pyrimidin-4-yl]amino}-2-hydroxycyclopentyl]methyl sulfamate]: the “Percent Inhibition” value turned out to be 23 and the IC50 lay in the range of 100 to 1000 nM.

As for `NS(=O)(=O)OC[C@H]1C[C@@H](Nc2ncncc2C(=O)c2cc([C@@]3(C4CC4)CCCO3)cs2)C[C@@H]1O` (mixture of isomers) [I-238, [(1R,2S,4R)-4-{[5-({4-[(2S)-2-cyclopropyltetrahydrofuran-2-yl]-2-thienyl}carbonyl)pyrimidin-4-yl]amino}-2-hydroxycyclopentyl]methyl sulfamate and [(1R,2S,4R)-4-{[5-({4-[(2R)-2-cyclopropyltetrahydrofuran-2-yl]-2-thienyl}carbonyl)pyrimidin-4-yl]amino}-2-hydroxycyclopentyl]methyl sulfamate], the “Percent Inhibition” value was 25 and the IC50 was in the range of 100 to 1000 nM.

On to `NS(=O)(=O)OC[C@H]1C[C@@H](Nc2ncncc2C(=O)c2cc([C@@H]3NCCc4ccc(Cl)nc43)c(Cl)s2)C[C@@H]1O.NS(=O)(=O)OC[C@H]1C[C@@H](Nc2ncncc2C(=O)c2cc([C@H]3NCCc4ccc(Cl)nc43)c(Cl)s2)C[C@@H]1O` (mixture of isomers) [I-253, [(1R,2S,4R)-4-{[5-({5-chloro-4-[(8S)-2-chloro-5,6,7,8-tetrahydro-1,7-naphthyridin-8-yl]-2-thienyl}carbonyl)pyrimidin-4-yl]amino}-2-hydroxycyclopentyl]methyl sulfamate and [(1R,2S,4R)-4-{[5-({5-chloro-4-[(8R)-2-chloro-5,6,7,8-tetrahydro-1,7-naphthyridin-8-yl]-2-thienyl}carbonyl)pyrimidin-4-yl]amino}-2-hydroxycyclopentyl]methyl sulfamate], for which the “Percent Inhibition” value came to 100 and the IC50 is under 10 nM.

Turning to `NS(=O)(=O)OC[C@H]1C[C@@H](Nc2ncncc2C(=O)c2cc([C@@H]3OCCc4ccccc43)cs2)C[C@@H]1O.NS(=O)(=O)OC[C@H]1C[C@@H](Nc2ncncc2C(=O)c2cc([C@H]3OCCc4ccccc43)cs2)C[C@@H]1O` (mixture of isomers) [I-254, [(1R,2S,4R)-4-{[5-({4-[(1R)-3,4-dihydro-1H-isochromen-1-yl]-2-thienyl}carbonyl)pyrimidin-4-yl]amino}-2-hydroxycyclopentyl]methyl sulfamate and [(1R,2S,4R)-4-{[5-({4-[(1S)-3,4-dihydro-1H-isochromen-1-yl]-2-thienyl}carbonyl)pyrimidin-4-yl]amino}-2-hydroxycyclopentyl]methyl sulfamate], the “Percent Inhibition” value came out at 99 and the IC50 was under 10 nM.

For the compound `Cc1sc(C(=O)c2cncnc2NC2CC(O)C(COS(N)(=O)=O)C2)cc1C1OCCc2ccccc21` (mixture of isomers) [I-256, [(1R,2S,4R)-4-{[5-({4-[(1R)-3,4-dihydro-1H-isochromen-1-yl]-5-methyl-2-thienyl}carbonyl)pyrimidin-4-yl]amino}-2-hydroxycyclopentyl]methyl sulfamate and [(1R,2S,4R)-4-{[5-({4-[(1S)-3,4-dihydro-1H-isochromen-1-yl]-5-methyl-2-thienyl}carbonyl)pyrimidin-4-yl]amino}-2-hydroxycyclopentyl]methyl sulfamate], the “Percent Inhibition” value is 100 and the IC50 is under 10 nM.

Consider `Cc1sc(C(=O)c2cncnc2N[C@@H]2C[C@H](COS(N)(=O)=O)[C@@H](O)C2)cc1[C@@H]1OCCc2ccc(C(F)(F)F)cc21` (mixture of isomers) [I-258, [(1R,2S,4R)-2-hydroxy-4-{[5-({5-methyl-4-[(1R)-7-(trifluoromethyl)-3,4-dihydro-1H-isochromen-1-yl]-2-thienyl}carbonyl)pyrimidin-4-yl]amino}cyclopentyl]methyl sulfamate and [(1R,2S,4R)-2-hydroxy-4-{[5-({5-methyl-4-[(1S)-7-(trifluoromethyl)-3,4-dihydro-1H-isochromen-1-yl]-2-thienyl}carbonyl)pyrimidin-4-yl]amino}cyclopentyl]methyl sulfamate], for which the “Percent Inhibition” value is on record as 100 and the IC50 was under 10 nM.

Take `NS(=O)(=O)OC[C@H]1C[C@@H](Nc2ncncc2C(=O)c2cc([C@@H]3NCCc4ccc(Br)cc43)c(Cl)s2)[C@H](O)[C@@H]1O` (mixture of isomers) [I-259, [(1R,2R,3S,4R)-4-{[5-({4-[(1R)-7-bromo-1,2,3,4-tetrahydroisoquinolin-1-yl]-5-chloro-2-thienyl}carbonyl)pyrimidin-4-yl]amino}-2,3-dihydroxycyclopentyl]methyl sulfamate and [(1R,2R,3S,4R)-4-{[5-({4-[(1S)-7-bromo-1,2,3,4-tetrahydroisoquinolin-1-yl]-5-chloro-2-thienyl}carbonyl)pyrimidin-4-yl]amino}-2,3-dihydroxycyclopentyl]methyl sulfamate]: the “Percent Inhibition” value was 99 and the IC50 is under 10 nM.

Regarding `Cc1sc(C(=O)c2cncnc2N[C@@H]2C[C@H](COS(N)(=O)=O)[C@@H](O)C2)cc1[C@H]1OCC(F)(F)c2ccc(Cl)nc21` (mixture of isomers) [I-260, [(1R,2S,4R)-4-{[5-({4-[(8R)-2-chloro-5,5-difluoro-5,8-dihydro-6H-pyrano[3,4-b]pyridin-8-yl]-5-methyl-2-thienyl}carbonyl)pyrimidin-4-yl]amino}-2-hydroxycyclopentyl]methyl sulfamate and [(1R,2S,4R)-4-{[5-({4-[(8S)-2-chloro-5,5-difluoro-5,8-dihydro-6H-pyrano[3,4-b]pyridin-8-yl]-5-methyl-2-thienyl}carbonyl)pyrimidin-4-yl]amino}-2-hydroxycyclopentyl]methyl sulfamate], the “Percent Inhibition” value worked out at 98 and the IC50 is under 10 nM.

`NS(=O)(=O)OC[C@H]1C[C@@H](Nc2ncncc2C(=O)c2cc([C@H]3OCCc4ccc(Cl)cc43)cs2)C[C@@H]1O` (mixture of isomers) [I-261, [(1R,2S,4R)-4-{[5-({4-[(1R)-7-chloro-3,4-dihydro-1H-isochromen-1-yl]-2-thienyl}carbonyl)pyrimidin-4-yl]amino}-2-hydroxycyclopentyl]methyl sulfamate and [(1R,2S,4R)-4-{[5-({4-[(1S)-7-chloro-3,4-dihydro-1H-isochromen-1-yl]-2-thienyl}carbonyl)pyrimidin-4-yl]amino}-2-hydroxycyclopentyl]methyl sulfamate]: the “Percent Inhibition” value is on record as 99 and the IC50 was under 10 nM.

Take `NS(=O)(=O)OC[C@H]1C[C@@H](Nc2ncncc2C(=O)c2cc([C@@H]3NCc4ccc(Cl)cc43)c(Cl)s2)C[C@@H]1O` (mixture of isomers) [I-262, [(1R,2S,4R)-4-{[5-({5-chloro-4-[(1R)-6-chloro-2,3-dihydro-1H-isoindol-1-yl]-2-thienyl}carbonyl)pyrimidin-4-yl]amino}-2-hydroxycyclopentyl]methyl sulfamate and [(1R,2S,4R)-4-{[5-({5-chloro-4-[(1S)-6-chloro-2,3-dihydro-1H-isoindol-1-yl]-2-thienyl}carbonyl)pyrimidin-4-yl]amino}-2-hydroxycyclopentyl]methyl sulfamate]: the “Percent Inhibition” value worked out at 100 and the IC50 is under 10 nM.

As to `Cc1sc(C(=O)c2cncnc2N[C@@H]2C[C@H](COS(N)(=O)=O)[C@@H](O)[C@@H]2F)cc1[C@H]1OCCc2ccc(Cl)cc21` (mixture of isomers) [I-264, [(1R,2R,3R,4R)-4-{[5-({4-[(1S)-7-chloro-3,4-dihydro-1H-isochromen-1-yl]-5-methyl-2-thienyl}carbonyl)pyrimidin-4-yl]amino}-3-fluoro-2-hydroxycyclopentyl]methyl sulfamate and [(1R,2R,3R,4R)-4-{[5-({4-[(1R)-7-chloro-3,4-dihydro-1H-isochromen-1-yl]-5-methyl-2-thienyl}carbonyl)pyrimidin-4-yl]amino}-3-fluoro-2-hydroxycyclopentyl]methyl sulfamate], the “Percent Inhibition” value was found to be 100 and the IC50 was under 10 nM.

With `CN1Cc2ccc(Cl)cc2[C@@H]1c1csc(C(=O)c2cncnc2N[C@@H]2C[C@H](COS(N)(=O)=O)[C@@H](O)C2)c1` (mixture of isomers) [I-265, [(1R,2S,4R)-4-{[5-({4-[(1R)-6-chloro-2-methyl-2,3-dihydro-1H-isoindol-1-yl]-2-thienyl}carbonyl)pyrimidin-4-yl]amino}-2-hydroxycyclopentyl]methyl sulfamate and [(1R,2S,4R)-4-{[5-({4-[(1S)-6-chloro-2-methyl-2,3-dihydro-1H-isoindol-1-yl]-2-thienyl}carbonyl)pyrimidin-4-yl]amino}-2-hydroxycyclopentyl]methyl sulfamate], the “Percent Inhibition” value stood at 97 and the IC50 is under 10 nM.
